Experimental findings from patent US11542256B2, “Vinylheterocycles as Rho-associated coiled-coil kinase (ROCK) inhibitors” (ANGION BIOMEDICA CORP., priority 2017, dated 2023) are described below.

In series [1] the test system is BDL model, adult male C57BLU6 mice. Kind of series: Biliary obstruction model (bile duct ligation, BDL). Type of series: in vivo. The note with it: 10 mg/kg PO BID; for MAP (mean arterial pressure) versus sham and BDL+vehicle: BDL C57BLU6 mice, day 9, FIG. 1. The protocol:
Adult male C57BLU6 mice were submitted to standard bile duct ligation (BDL model: Luo, W., Meng, Y., Ji, H. L., Pan, C. Q., Huang, S., Yu, C. H., Xiao, L. M., Cui, K., Ni, S. Y., Zhang, Z. S., Li, X. Spironolactone lowers portal hypertension by inhibiting liver fibrosis, ROCK-2 activity and activating NO/PKG pathway in the bile-duct-ligated rat. PLoS One 2012, 7(3), e34230) and treated with vehicle (n=7; 50% PEG300+10% tween 80+40% saline, the formulation for Ex. 1) or Ex. 1 (n=3; 10 mg/kg, PO, BID), starting a day after BDL surgery. In this study, animals were sacrificed 9 days after BDL. A subset of BDL animals was treated with fasudil (n=2; 10 mg/kg, PO, BID) to compare hemodynamic effects (on day 9) of a ROCK2-selective inhibitor vs. a dual ROCK1/2 inhibitor in this model of liver injury/disease. A sham group served as control.
The BDL model is a model of cholestatic injury and is associated with both inflammation and biliary sclerosis. This was evident even by day 9 in the BDL+vehicle-treated cohort (p<0.01 vs. sham). […] Treatment with a compound of the invention was also associated with a reduction in biliary inflammation (H&E sections, FIG. 4A) and the necro-inflammatory score (FIG. 4B).

In the next series the test system is male CD-1 mice. The experiment in a line: Mean arterial pressure after bile duct ligation in CD-1 mice. The conditions noted are these: BDL CD-1 mice, 10 mg/kg orally BID for 10 days, carotid catheter under isoflurane. Type of series: in vivo. Here is the method: The experiments were performed on male CD-1 mice (10-11 week-old), purchased from Charles River Laboratories, MA. After arrival, the animals were housed in the Angion Biomedica animal care facility and allowed 5 days for acclimatization in room having an ambient temperature of 23±2° C. and 12 hr dark/light cycle. The animals were fed normal rodent chow and tap water was provided ad libitum. All the animal experimental protocols were approved by the Institutional Animal Care and Use Committee at the Angion Biomedica.
For bile duct ligation (BDL), we performed midline laparotomy of a length of approximately 1.5-2 cm by cutting the cutis plus fascia with a blunt end surgical scissor. The bile duct was then exposed by caudal movement of the gut. […] Animals were allowed to recover under heating pads and were monitored closely for signs of discomfort or pain.
After 24 hrs of bile duct ligation, the CD-1 mice (N=8-10 per group,) were treated with normal saline as vehicle and the Fasudil (10 mg/kg/body weight) and Compound of Ex. 1 (10 mg/kg body weight) groups were treated orally (BID) for 10 days. […] After 10 days of treatment, animals were anesthetized and mean arterial pressure was measured.
Mice were anaesthetized using isoflurane. […] The animals were maintained on heating pads throughout the surgery and temperature was recorded by inserting a temperature probe in the rectum. […]

Another series has as its target T1, ROCK2 (Homo sapiens, UniProt O75116).
T1 construct: purchased DiscoverX (KINOMEscan KdELECT service); host or cells: E. coli BL21-derived (T7 phage) or HEK-293
The experiment in a line: KINOMEscan KdELECT kinase binding assay, ROCK2. The note with it: equilibrium dissociation constant, 11-point 3-fold dilution series. The protocol:
(§1) The ROCK1 and ROCK2 kinase binding affinities of compounds in this invention were determined by DiscoverX's KINOMEscan™ KdELECT technology (https://www.discoverx.com/kinomescan-elect-kinase-screening-and-profiling-services): Kinase-tagged T7 phage strains were prepared in an E. coli host derived from the BL21 strain. E. coli were grown to log-phase and infected with T7 phage and incubated with shaking at 32° C. until lysis. The lysates were centrifuged and filtered to remove cell debris. The remaining kinases were produced in HEK-293 cells and subsequently tagged with DNA for qPCR detection. Streptavidin-coated magnetic beads were treated with biotinylated small molecule ligands for 30 minutes at room temperature to generate affinity resins for kinase assays. The liganded beads were blocked with excess biotin and washed with blocking buffer (SeaBlock (Pierce), 1% BSA, 0.05% Tween 20, 1 mM DTT) to remove unbound ligand and to reduce nonspecific binding. […] Test compounds were prepared as […] in 100% DMSO. Kds were determined using an […] 3-fold compound dilution series with three DMSO control points. […] The compounds were then diluted directly into the assays such that the final concentration of DMSO was 0.9%. All reactions performed in polypropylene 384-well plate. Each was a final volume of 0.02 ml. […] The kinase concentration in the eluates was measured by qPCR.

The next series deals with T2, ROCK1 (Homo sapiens, UniProt Q13464).
T2 construct: purchased DiscoverX (KINOMEscan KdELECT service); host or cells: E. coli BL21-derived (T7 phage) or HEK-293
T2 sequence (Q13464 whole entry): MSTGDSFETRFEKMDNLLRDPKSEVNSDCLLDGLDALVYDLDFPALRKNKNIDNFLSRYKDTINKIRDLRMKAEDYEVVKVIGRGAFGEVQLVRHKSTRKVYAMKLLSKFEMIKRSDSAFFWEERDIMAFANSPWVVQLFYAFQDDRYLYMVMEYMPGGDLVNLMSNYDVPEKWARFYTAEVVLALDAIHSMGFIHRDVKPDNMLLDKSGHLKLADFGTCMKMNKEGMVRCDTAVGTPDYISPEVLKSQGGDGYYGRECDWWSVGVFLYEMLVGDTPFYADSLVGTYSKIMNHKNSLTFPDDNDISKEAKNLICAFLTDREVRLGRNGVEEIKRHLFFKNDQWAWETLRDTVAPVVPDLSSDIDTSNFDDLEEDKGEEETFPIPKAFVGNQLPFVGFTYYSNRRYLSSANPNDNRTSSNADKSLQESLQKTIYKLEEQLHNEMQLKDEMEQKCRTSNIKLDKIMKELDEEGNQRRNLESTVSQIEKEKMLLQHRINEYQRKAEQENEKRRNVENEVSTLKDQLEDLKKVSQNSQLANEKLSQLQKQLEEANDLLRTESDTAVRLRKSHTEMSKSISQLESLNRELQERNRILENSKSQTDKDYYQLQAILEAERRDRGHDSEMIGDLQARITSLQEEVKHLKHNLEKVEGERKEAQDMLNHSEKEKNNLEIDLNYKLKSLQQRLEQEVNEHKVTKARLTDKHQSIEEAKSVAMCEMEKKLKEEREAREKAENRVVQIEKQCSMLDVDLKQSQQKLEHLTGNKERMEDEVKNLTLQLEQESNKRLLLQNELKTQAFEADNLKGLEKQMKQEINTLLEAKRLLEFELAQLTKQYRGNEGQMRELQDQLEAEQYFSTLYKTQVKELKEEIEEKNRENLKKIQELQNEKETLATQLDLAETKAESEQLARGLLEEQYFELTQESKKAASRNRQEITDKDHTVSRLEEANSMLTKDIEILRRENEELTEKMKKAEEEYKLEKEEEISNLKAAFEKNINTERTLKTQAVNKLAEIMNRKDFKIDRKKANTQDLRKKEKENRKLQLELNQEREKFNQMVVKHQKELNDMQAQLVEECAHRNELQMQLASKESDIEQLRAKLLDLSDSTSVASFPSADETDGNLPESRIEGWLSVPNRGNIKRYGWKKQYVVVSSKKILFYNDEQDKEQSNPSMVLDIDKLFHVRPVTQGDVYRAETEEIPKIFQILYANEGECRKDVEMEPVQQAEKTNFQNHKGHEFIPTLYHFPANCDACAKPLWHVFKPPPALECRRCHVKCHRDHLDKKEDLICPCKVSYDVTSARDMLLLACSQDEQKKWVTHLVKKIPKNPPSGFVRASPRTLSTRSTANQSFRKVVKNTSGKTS
Kind of series: KINOMEscan KdELECT kinase binding assay, ROCK1. The note with it: equilibrium dissociation constant, 11-point 3-fold dilution series. Here is the method: as §1

Structures are written as SMILES.

By Kd is commonly meant the constant that tells how readily two partners part at equilibrium. Lower therefore signals tighter binding.

T1 sequence (O75116 whole entry): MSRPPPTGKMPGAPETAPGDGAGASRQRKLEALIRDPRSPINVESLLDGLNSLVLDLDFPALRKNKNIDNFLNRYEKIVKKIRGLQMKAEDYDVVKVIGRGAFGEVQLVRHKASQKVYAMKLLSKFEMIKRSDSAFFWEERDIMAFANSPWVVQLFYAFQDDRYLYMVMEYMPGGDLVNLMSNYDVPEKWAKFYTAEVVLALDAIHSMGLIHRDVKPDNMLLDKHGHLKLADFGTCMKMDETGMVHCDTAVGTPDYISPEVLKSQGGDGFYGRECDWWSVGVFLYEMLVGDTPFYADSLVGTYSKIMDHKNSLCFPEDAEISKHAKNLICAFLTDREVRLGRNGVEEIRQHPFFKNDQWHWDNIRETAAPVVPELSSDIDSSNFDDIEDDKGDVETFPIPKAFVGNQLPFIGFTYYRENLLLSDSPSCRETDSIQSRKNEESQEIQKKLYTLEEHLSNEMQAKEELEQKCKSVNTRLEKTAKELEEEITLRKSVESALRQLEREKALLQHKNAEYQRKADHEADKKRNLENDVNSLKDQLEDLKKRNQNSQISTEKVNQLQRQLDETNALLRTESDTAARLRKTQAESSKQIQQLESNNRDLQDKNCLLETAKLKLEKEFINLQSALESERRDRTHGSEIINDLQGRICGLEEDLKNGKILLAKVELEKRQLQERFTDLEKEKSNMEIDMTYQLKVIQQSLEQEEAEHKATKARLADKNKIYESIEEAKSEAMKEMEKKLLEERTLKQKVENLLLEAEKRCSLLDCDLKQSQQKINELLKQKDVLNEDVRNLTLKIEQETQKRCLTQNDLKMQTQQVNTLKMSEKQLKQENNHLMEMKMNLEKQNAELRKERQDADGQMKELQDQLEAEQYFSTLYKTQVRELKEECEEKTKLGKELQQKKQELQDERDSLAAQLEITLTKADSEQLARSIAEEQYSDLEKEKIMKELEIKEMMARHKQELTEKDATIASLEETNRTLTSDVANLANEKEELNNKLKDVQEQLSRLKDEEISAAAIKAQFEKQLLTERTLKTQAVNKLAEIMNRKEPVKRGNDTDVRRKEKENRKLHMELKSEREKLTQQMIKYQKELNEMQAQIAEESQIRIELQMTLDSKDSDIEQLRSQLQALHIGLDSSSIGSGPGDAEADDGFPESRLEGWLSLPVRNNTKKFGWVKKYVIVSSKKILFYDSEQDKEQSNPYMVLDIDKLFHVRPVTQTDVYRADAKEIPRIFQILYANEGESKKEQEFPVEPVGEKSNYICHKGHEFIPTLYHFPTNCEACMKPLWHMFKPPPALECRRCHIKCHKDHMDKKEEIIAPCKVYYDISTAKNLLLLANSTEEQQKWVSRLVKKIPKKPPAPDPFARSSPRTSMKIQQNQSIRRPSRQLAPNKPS

As for `COc1ccc2c(c1)CN(c1nccc(-c3nccc(/C=C/c4ccncc4)n3)n1)C2` [Ex. 1, (E)-5-Methoxy-2-(4-(2-(pyridine-4-yl)vinyl)-[2,4′-bipyrimidin]-2′-yl)isoindoline], the “MAP (mean arterial pressure) versus sham and BDL+vehicle” value in series [1] is on record as “not different”. The “biliary thickening (bile duct wall thickness)” value in series [1] (BDL mice, day 9, H&E sections and quantitative analysis, FIG. 2 and 3) is “reduction in biliary thickening”. Besides, the “change (decrease) in mean arterial blood pressure” value in the series with male CD-1 mice was “did not cause any change”. The Kd on ROCK2 was 140 nM; on ROCK1, more than 30000 nM.
Turning to `COc1ccc2c(c1)CN(c1nccc(-c3nccc(/C=C/c4ccnc5ccccc45)n3)n1)C2` [Ex. 3, (E)-4-(2-(2′-(5-Methoxyisoindolin-2-yl)-[2,4′-bipyrimidin]-4-yl)vinyl)quinoline], the Kd on ROCK2 and on ROCK1 was more than 30000 nM in each case.
With `COc1ccc2c(c1)CN(c1nccc(-c3nccc(/C=C/c4ccnc5[nH]ccc45)n3)n1)C2` [Ex. 4, (E)-4-(2-(2′-(5-Methoxyisoindolin-2-yl)-[2,4′-bipyrimidin]-4-yl)vinyl)-1H-pyrrolo[2,3-b]pyridine], the Kd on ROCK2 stood at 1800 nM; at ROCK1, 8000 nM.
For `COc1ccc2c(c1)CN(c1nccc(-c3nccc(/C=C/c4ccnc(N)n4)n3)n1)C2` [Ex. 5, (E)-4-(2-(2′-(5-Methoxyisoindolin-2-yl)-[2,4′-bipyrimidin]-4-yl)vinyl)pyrimidin-2-amine] the same measures were 2000 nM and more than 30000 nM.
In the case of `Oc1ccc2c(c1)CN(c1nccc(-c3nccc(/C=C/c4ccncc4)n3)n1)C2` [Ex. 6, (E)-2-(4-(2-(Pyridin-4-yl)vinyl)-[2,4′-bipyrimidin]-2′-yl)isoindolin-5-ol], the results for the Kd at ROCK2 and on ROCK1 were 120 nM and more than 30000 nM, respectively.
Turning to `O=S(=O)(Oc1ccc2c(c1)CN(c1nccc(-c3nccc(/C=C/c4ccncc4)n3)n1)C2)C(F)(F)F` [Ex. 7, (E)-2-(4-(2-(Pyridin-4-yl)vinyl)-[2,4′-bipyrimidin]-2′-yl)isoindolin-5-yl Trifluoromethanesulfonate], the Kd at ROCK2 is 910 nM; on ROCK1, more than 30000 nM.
For `N#Cc1ccc2c(c1)CN(c1nccc(-c3nccc(/C=C/c4ccncc4)n3)n1)C2` [Ex. 8, (E)-2-(4-(2-(Pyridin-4-yl)vinyl)-[2,4′-bipyrimidin]-2′-yl)isoindoline-5-carbonitrile] the same measures were 110 nM and 680 nM.
With `CN(C)CCOc1ccc2c(c1)CN(c1nccc(-c3nccc(/C=C/c4ccncc4)n3)n1)C2` [Ex. 9, (E)-N,N-Dimethyl-2-((2-(4-(2-(pyridin-4-yl)vinyl)-[2,4′-bipyrimidin]-2′-yl)isoindolin-5-yl)oxy)ethanamine], the Kd at ROCK2 came to 85 nM; at ROCK1, 2400 nM.
The matching figures for `CNC(=O)COc1ccc2c(c1)CN(c1nccc(-c3nccc(/C=C/c4ccncc4)n3)n1)C2` [Ex. 11, (E)-N-Methyl-2-((2-(4-(2-(pyridin-4-yl)vinyl)-[2,4′-bipyrimidin]-2′-yl)isoindolin-5-yl)oxy)acetamide]: 110 nM and 1100 nM.
`CCNC(=O)COc1ccc2c(c1)CN(c1nccc(-c3nccc(/C=C/c4ccncc4)n3)n1)C2` [Ex. 12, (E)-N-Ethyl-2-((2-(4-(2-(pyridin-4-yl)vinyl)-[2,4′-bipyrimidin]-2′-yl)isoindolin-5-yl)oxy)acetamide]: the figures for the Kd on ROCK2 and on ROCK1 were 180 nM and 15000 nM, respectively.
For `CC(C)NC(=O)COc1ccc2c(c1)CN(c1nccc(-c3nccc(/C=C/c4ccncc4)n3)n1)C2` [Ex. 13, (E)-N-Isopropyl-2-((2-(4-(2-(pyridin-4-yl)vinyl)-[2,4′-bipyrimidin]-2′-yl)isoindolin-5-yl)oxy)acetamide], the Kd on ROCK2 was 130 nM; at ROCK1, 13000 nM.
As for `Fc1ccc2c(c1)CN(c1nccc(-c3nccc(/C=C/c4ccncc4)n3)n1)C2` [Ex. 14, (E)-5-Fluoro-2-(4-(2-(pyridine-4-yl)vinyl)-[2,4′-bipyrimidin]-2′-yl)isoindoline], the results for the Kd on ROCK2 and at ROCK1 were 1200 nM and 26000 nM, respectively.
`O=S(=O)(c1cccc2cnccc12)N1CCCNCC1` [fasudil, reference compound]: the “MAP (mean arterial pressure) versus sham and BDL+vehicle” value in series [1] was “decreased MAP”. For the same molecule, the “change (decrease) in mean arterial blood pressure” value in the series on male CD-1 mice is on record as approximately 26 mm Hg.
